From ChEMBL document CHEMBL1135343, “Glutathione-like tripeptides as inhibitors of glutathionylspermidine synthetase. Part 2: substitution of the glycine part” (Bioorg Med Chem Lett, 2002)
“And” between values parts separate entries of the source, which are not always exact repeats. Equal entries are not always repeated. Numbered stars: 1 amine (or outer) side, 2 acyl side, 3 side chain; on linkers, the order of the positions; unused ones are H or OH. Square brackets hold non-standard residues; d marks the D form. Peptide text beside a SMILES is read from it. γGlu = O=C(O)[C@H](CCC(=O)[*:2])N[*:1]; Orn = NCCC[C@H](N)C(=O)O; Dab = NCC[C@H](N)C(=O)O; Nva = CCC[C@H](N)C(=O)O; Dap = NC[C@H](N)C(=O)O

molecular target: T1, Glutathionylspermidine synthase (Crithidia fasciculata) (UniProt P90518); test: (§1) Tested against glutathionylspermidine synthetase (GspS) in Crithidia fasciculata; set-up: concentration or dose not given beside the values; conditions: concentration not given here
T1 sequence (whole entry): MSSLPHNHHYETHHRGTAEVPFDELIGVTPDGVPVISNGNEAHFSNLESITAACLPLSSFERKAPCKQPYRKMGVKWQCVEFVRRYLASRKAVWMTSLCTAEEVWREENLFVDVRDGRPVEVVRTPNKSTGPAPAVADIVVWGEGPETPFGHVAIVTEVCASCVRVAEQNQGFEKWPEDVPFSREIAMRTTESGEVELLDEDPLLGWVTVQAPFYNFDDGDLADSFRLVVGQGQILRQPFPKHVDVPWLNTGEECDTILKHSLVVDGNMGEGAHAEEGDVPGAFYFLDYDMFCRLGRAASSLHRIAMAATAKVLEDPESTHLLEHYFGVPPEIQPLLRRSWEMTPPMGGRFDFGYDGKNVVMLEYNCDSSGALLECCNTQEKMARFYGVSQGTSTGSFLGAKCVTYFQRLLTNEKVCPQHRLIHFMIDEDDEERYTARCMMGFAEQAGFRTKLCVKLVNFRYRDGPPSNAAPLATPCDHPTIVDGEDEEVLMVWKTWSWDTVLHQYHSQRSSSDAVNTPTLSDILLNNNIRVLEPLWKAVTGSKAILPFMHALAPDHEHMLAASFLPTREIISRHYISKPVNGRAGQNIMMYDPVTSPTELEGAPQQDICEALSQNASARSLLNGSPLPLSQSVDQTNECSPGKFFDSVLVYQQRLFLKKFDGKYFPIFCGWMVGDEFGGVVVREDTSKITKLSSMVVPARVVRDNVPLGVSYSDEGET

| SMILES | inhibition [%] |
| --- | --- |
| CC(C)C[C@H](NC(=O)CC[C@H](N)C(=O)O)C(=O)N[C@@H](CCCCNCCCN)C(=O)O | 93 |
| CC(C)C[C@H](NC(=O)CC[C@H](N)C(=O)O)C(=O)N[C@@H](CCCCNCCCCN)C(=O)O | 94 |
| CC(C)C[C@H](NC(=O)CC[C@H](NC(=O)OC(C)(C)C)C(=O)OC(C)(C)C)C(=O)N[C@@H](CCCCNCCCNC(=O)OC(C)(C)C)C(=O)O | 62 |
| CC(C)C[C@H](NC(=O)[C@H](CC(C)C)NC(=O)CC[C@H](N)C(=O)O)C(=O)O | 59 |
| CC(C)C[C@H](NC(=O)CC[C@H](N)C(=O)O)C(=O)N[C@@H](CCCN=C(N)N)C(=O)O | 95 |
| CCCC[C@H](NC(=O)[C@H](CC(C)C)NC(=O)CC[C@H](N)C(=O)O)C(=O)O | 53 |
| CC(C)C[C@H](NC(=O)CC[C@H](N)C(=O)O)C(=O)N[C@@H](C)C(=O)O (γGlu-Leu-Ala-OH) | 87 |
| CC(C)C[C@H](NC(=O)CC[C@H](N)C(=O)O)C(=O)N[C@@H](CCC(=O)O)C(=O)O (γGlu-Leu-Glu-OH) | 60 |
| CC(C)C[C@H](NC(=O)CC[C@H](N)C(=O)O)C(=O)NCC(=O)O (γGlu-Leu-Gly-OH) | 0 |
| CC(C)C[C@H](NC(=O)CC[C@H](N)C(=O)O)C(=O)N[C@@H](CCCCN)C(=O)O (γGlu-Leu-Lys-OH) | 93 |
| CC(C)C[C@H](NC(=O)CC[C@H](N)C(=O)O)C(=O)N[C@@H](CCCN)C(=O)O (γGlu-Leu-[Orn]-OH) | 95 |

Next, values leading:

| inhibition [%] | SMILES |
| --- | --- |
| 68 | CC(C)C[C@H](NC(=O)CC[C@H](N)C(=O)O)C(=O)N[C@@H](CC(N)=O)C(=O)O (γGlu-Leu-Asn-OH) |
| 69 | CC(C)C[C@H](NC(=O)CC[C@H](N)C(=O)O)C(=O)N[C@@H](CC(=O)O)C(=O)O (γGlu-Leu-Asp-OH) |
| 94 | CC(C)C[C@H](NC(=O)CC[C@H](N)C(=O)O)C(=O)N[C@@H](CO)C(=O)O (γGlu-Leu-Ser-OH) |
| 95 | CC(C)C[C@H](NC(=O)CC[C@H](N)C(=O)O)C(=O)N[C@@H](CCN)C(=O)O (γGlu-Leu-[Dab]-OH) |
| 97 | CC(C)C[C@H](NC(=O)CC[C@H](N)C(=O)O)C(=O)N[C@@H](CN)C(=O)O (γGlu-Leu-[Dap]-OH) |
| 70 | CCC[C@H](NC(=O)[C@H](CC(C)C)NC(=O)CC[C@H](N)C(=O)O)C(=O)O (γGlu-Leu-[Nva]-OH) |

molecular target: T2, Glutathionylspermidine synthase (Crithidia fasciculata, UniProt P90518); test: Inhibitory constant against glutathionylspermidine synthetase (GspS) in Crithidia fasciculata; conditions: not given
T2 sequence (P90518 whole entry): T1 sequence (whole entry)

| SMILES | Ki |
| --- | --- |
| CC(C)C[C@H](NC(=O)CC[C@H](N)C(=O)O)C(=O)N[C@@H](CCCCNCCCN)C(=O)O | 33 µM and 59 µM |
| CC(C)C[C@H](NC(=O)CC[C@H](N)C(=O)O)C(=O)N[C@@H](CCCCNCCCCN)C(=O)O | 32 µM and 86 µM |
| CC(C)C[C@H](NC(=O)CC[C@H](N)C(=O)O)C(=O)N[C@@H](CCCN=C(N)N)C(=O)O | 6.4 µM and 17 µM |
| CC(C)C[C@H](NC(=O)CC[C@H](N)C(=O)O)C(=O)N[C@@H](CCCCN)C(=O)O (γGlu-Leu-Lys-OH) | 27 µM and 48 µM |
| CC(C)C[C@H](NC(=O)CC[C@H](N)C(=O)O)C(=O)N[C@@H](CCCN)C(=O)O (γGlu-Leu-[Orn]-OH) | 10 µM and 39 µM |

Next, values leading:

| Ki | SMILES |
| --- | --- |
| 14 µM and 25 µM | CC(C)C[C@H](NC(=O)CC[C@H](N)C(=O)O)C(=O)N[C@@H](CO)C(=O)O (γGlu-Leu-Ser-OH) |
| 10.4 µM and 24 µM | CC(C)C[C@H](NC(=O)CC[C@H](N)C(=O)O)C(=O)N[C@@H](CCN)C(=O)O (γGlu-Leu-[Dab]-OH) |
| 7.2 µM and 21 µM | CC(C)C[C@H](NC(=O)CC[C@H](N)C(=O)O)C(=O)N[C@@H](CN)C(=O)O (γGlu-Leu-[Dap]-OH) |

molecular target: T2, Glutathionylspermidine synthase; test: as §1; conditions: not given

| SMILES | IC50 [µM] |
| --- | --- |
| CC(C)C[C@H](NC(=O)CC[C@H](N)C(=O)O)C(=O)N[C@@H](CCCCNCCCN)C(=O)O | 23 |
| CC(C)C[C@H](NC(=O)CC[C@H](N)C(=O)O)C(=O)N[C@@H](CCCCNCCCCN)C(=O)O | 27.9 |
| CC(C)C[C@H](NC(=O)CC[C@H](NC(=O)OC(C)(C)C)C(=O)OC(C)(C)C)C(=O)N[C@@H](CCCCNCCCNC(=O)OC(C)(C)C)C(=O)O | 157 |
| CC(C)C[C@H](NC(=O)[C@H](CC(C)C)NC(=O)CC[C@H](N)C(=O)O)C(=O)O | 365 |
| CC(C)C[C@H](NC(=O)CC[C@H](N)C(=O)O)C(=O)N[C@@H](CCCN=C(N)N)C(=O)O | 9.4 |
| CC(C)C[C@H](NC(=O)CC[C@H](N)C(=O)O)C(=O)N[C@@H](C)C(=O)O (γGlu-Leu-Ala-OH) | 90 |
| CC(C)C[C@H](NC(=O)CC[C@H](N)C(=O)O)C(=O)N[C@@H](CCC(=O)O)C(=O)O (γGlu-Leu-Glu-OH) | 227 |
| CC(C)C[C@H](NC(=O)CC[C@H](N)C(=O)O)C(=O)N[C@@H](CCCCN)C(=O)O (γGlu-Leu-Lys-OH) | 18 |
| CC(C)C[C@H](NC(=O)CC[C@H](N)C(=O)O)C(=O)N[C@@H](CCCN)C(=O)O (γGlu-Leu-[Orn]-OH) | 10.3 |

Next, values leading:

| IC50 [µM] | SMILES |
| --- | --- |
| 142 | CC(C)C[C@H](NC(=O)CC[C@H](N)C(=O)O)C(=O)N[C@@H](CC(N)=O)C(=O)O (γGlu-Leu-Asn-OH) |
| 156 | CC(C)C[C@H](NC(=O)CC[C@H](N)C(=O)O)C(=O)N[C@@H](CC(=O)O)C(=O)O (γGlu-Leu-Asp-OH) |
| 11.7 | CC(C)C[C@H](NC(=O)CC[C@H](N)C(=O)O)C(=O)N[C@@H](CO)C(=O)O (γGlu-Leu-Ser-OH) |
| 13.7 | CC(C)C[C@H](NC(=O)CC[C@H](N)C(=O)O)C(=O)N[C@@H](CCN)C(=O)O (γGlu-Leu-[Dab]-OH) |
| 9.1 | CC(C)C[C@H](NC(=O)CC[C@H](N)C(=O)O)C(=O)N[C@@H](CN)C(=O)O (γGlu-Leu-[Dap]-OH) |
| 145 | CCC[C@H](NC(=O)[C@H](CC(C)C)NC(=O)CC[C@H](N)C(=O)O)C(=O)O (γGlu-Leu-[Nva]-OH) |
